From patent publication US5319096A, “(1H-indol-1-yl)-2-(amino) acetamides and related (1H-indol-1-yl)-(aminoalkyl)amides, pharmaceutical composition and use” (Hoechst-Roussel Pharmaceuticals Inc., priority 1992, dated 1994)
Counter-ions that a name gives are not always drawn.

Tests used:
[1] = system: direct infusion of NMDA or quinolinate into the rat striatum; conditions: cited from earlier work
[2] = system: striatal neurons, infusion of quinolinate; conditions: 100 mg/kg, i.p., 1 hour after infusion of quinolinate; cited from earlier work
[3] = system: global ischemia in the gerbil; conditions: cited from earlier work
[4] = system: NMDA-induced Striatal Lesion; test: Protection Against NMDA-induced Striatal Lesion (% control enzyme activity, lesioned vs contralateral striatum); format: in vivo, Male Sprague Dawley rats; conditions: ip, NMDA 150 nanomoles, 7 days post surgery; for % Control Enzyme Activity ChAT: choline acetyltransferase; for % Control Enzyme Activity GAD: glutamic acid decarboxylase
From the text: Glutamate, aspartate and other excitatory amino acids (EAA) are putative neurotransmitters at vertebrate CNS excitatory synapses. […] The neurotoxicity of EAA has led to the implication of their involvement in human neurodegenerative disorders such as Alzheimer's Disease. Subacute or chronic overexposure to endogenous neurotoxin may lead to the slow degeneration of neurons (Olney, J., Excitotoxic Amino Acids and Neuropsychiatric Disorders. Annu. Rev. Pharmacol. Toxicol. 30:47-71, 1990). […] The striatal lesion paradigm can be used to assess the neuroprotective potential of novel compounds.
Testing of the compounds was carried out as follows: Male Sprague Dawley rats (Charles River) are housed under standard laboratory conditions as outlined in the "Guide for the Care and Use of Laboratory Animals" (National Institutes of Health Publications No. 85-23, Revised 1985). Food and water were provided ad libitum; lights were on from 0600-1800 h. Sterile techniques were used during surgery.
Rats (250-320 g) were anesthetized with chloral hydrate (400 mg/kg i.p., 10 ml/kg) and mounted in a David Kopf® stereotaxic instrument. An incision was made in the scalp and the skull surface was exposed. All coordinates were taken from the point on the skull where bregma meets the midline suture. The adjustable incisor bar was set at 3.3 mm below horizontal but may be adjusted. A 1-2 mm burr hole in the skull was made with a dental drill 0.5 mm anterior to bregma and 3.0 mm lateral from the midline (Paxinos, G. and Watson, C., The Rat Brain in Stereotaxic Coordinates. New York: Academic Press, 2nd ed., 1986). […] The cannula remained in place for one minute before infusion began. A total volume of 1 μl of NMDA (150 nanomoles per μl) solution was infused slowly (0.2 μl/2 min, total time of infusion was 10 min). The cannula remained in place for 5 minutes and then was slowly withdrawn (approx. 0.1 mm every 12 sec). NMDA was dissolved in 0.1M sodium phosphate buffer, pH 7.4. An equally osmolar solution of sodium chloride was used as a control in the contralateral striatum. The burr hole was sealed with bone wax and the scalp sutured closed.
The animals were sacrificed by decapitation seven days following surgery. The striatum was dissected over ice. […]
The experimental compounds were dissolved in 0.9% NaCl or appropriate vehicle and administered i.p. either pre- and/or post-excitotoxin infusion. […] Analysis of variance was calculated by the Newman-Keuls test with the PHARM/PCS computer program (Tallarida, R. J. and Murray, R. B., Manual of Pharmacologic Calculations with Computer Programs, Springer-Verlag, New York, 1987).

[5] = system: neurodegeneration in the rat striatum caused by intracerebral infusion of NMDA; conditions: cited from earlier work

SMILES: O=C(O)c1cc(O)c2ccc(Cl)cc2n1 [7-Chlorokynurenate]
- neuroprotection [1]: significant neuroprotection

SMILES: O=C(O)C1CN(CCCP(=O)(O)O)CCN1 (stereo not drawn) [CPP]
- protection of striatal neurons [2]: partial protection of striatal neurons

SMILES: NC1CCN(O)C1=O (stereo not drawn) [HA-966, 3-amino-1-hydroxypyrrolid-2-one]
- neuroprotection [1]: significant neuroprotection

SMILES: NS(=O)(=O)c1cccc2c1c([N+](=O)[O-])cc1nc(O)c(O)nc12 [NBQX, 2,3-Dihydroxy-6-nitro-7-sulfamoylbenzo(F)quinoxaline]
- protection against global ischemia [3]: protects against global ischemia in the gerbil

SMILES: NCC(=O)Nn1ccc2ccccc21 [[N-(1H-Indol-1-yl)-2-amino]acetamide hydrochloride]
- % Control Enzyme Activity ChAT ([4]; 100 mg/kg, pretreatment 30 min): 68 % Control
- % Control Enzyme Activity GAD ([4]; 100 mg/kg, pretreatment 30 min): 63 % Control

SMILES: C[C@]12N[C@H](Cc3ccccc31)c1ccccc12 [dizocilpine]
- protection against neurodegeneration in the rat striatum [5]: protected against neurodegeneration in the rat striatum
- % Control Enzyme Activity ChAT ([4]; 10 mg/kg, pretreatment 60 min): 104 % Control
- % Control Enzyme Activity GAD ([4]; 10 mg/kg, pretreatment 60 min): 110 % Control
